# Laboratory results from PMC12039421 (Animal Cells and Systems, 2025).
# Legend:
# human ERβ-LBD = human ERβ-LBD (Homo sapiens, UniProt Q92731); experiment: Isothermal titration calorimetry; type: binding
# human ERα-LBD = target: T1, human ERα-LBD (Homo sapiens, UniProt P03372); experiment: biochemical; type: binding
# T1 sequence (P03372 304-554): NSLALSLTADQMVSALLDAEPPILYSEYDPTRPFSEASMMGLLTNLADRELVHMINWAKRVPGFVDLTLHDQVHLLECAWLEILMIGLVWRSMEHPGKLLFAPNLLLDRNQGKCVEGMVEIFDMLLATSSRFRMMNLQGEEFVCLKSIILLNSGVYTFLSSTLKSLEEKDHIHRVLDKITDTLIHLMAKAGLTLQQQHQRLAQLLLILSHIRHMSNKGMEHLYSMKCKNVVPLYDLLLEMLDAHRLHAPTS
# ERα [1] = conditions: cited from earlier work
# ERα [2] = conditions: ref ICCVAM [2003]; cited from earlier work
# [3] = ITC, 25 °C, one binding site model
# Sequence of human ERβ-LBD (Q92731 264-498): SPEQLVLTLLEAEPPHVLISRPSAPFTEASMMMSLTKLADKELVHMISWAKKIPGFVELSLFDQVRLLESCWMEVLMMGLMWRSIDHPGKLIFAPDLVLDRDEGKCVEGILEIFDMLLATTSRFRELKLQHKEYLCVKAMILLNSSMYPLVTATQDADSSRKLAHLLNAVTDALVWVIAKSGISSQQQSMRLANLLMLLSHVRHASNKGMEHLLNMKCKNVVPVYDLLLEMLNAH
smiles,measurement,setting,value
CC(C)(C)CC(C)(C)c1ccc(O)cc1 [4-tert-Octylphenol],Kd,human ERβ-LBD,15.9 µM
CCC(C)(c1ccc(O)cc1)c1ccc(O)cc1 [Bisphenol B],Kd,human ERβ-LBD,51.3 µM
same,Kd,human ERα-LBD,112 µM
CC(C)C(=O)Nc1ccc([N+](=O)[O-])c(C(F)(F)F)c1 [Flutamide],activity in previous TG 455 (in words),"ERα [1]; previous TG 455, ref Zacharia [2017]",no activity
same,Kd (ER β),human ERβ-LBD; [3],no binding
same,Kd (ER α),human ERα-LBD; [3],no binding
C[C@]12CC[C@H]3[C@@H](CCC4=CC(=O)CC[C@@]43C)[C@@H]1CC[C@@H]2O [testosterone],transcriptional response in TG 455 (in words),ERα [1]; ref ICCVAM [2003],fails to induce downstream transcriptional responses
same,ER binding in TG 493 (in words),ERα [2],may bind to the ER
